Measured values from patent US20260315468A1, “PHARMACEUTICAL COMPOSITION AND USE THEREOF” (SHANGHAI ALLIST PHARMACEUTICAL CO., LTD., priority 2022, published 2026).

Experiments:
Ba/F3 EGFR-Del19/C797S = assay: Anti-proliferation, CellTiter-Glo Luminescent Cell Viability Assay; type: cell-based; conditions: Mus musculus, BaF3, 72 h, 3 days
Source text: (§1) The objective of the test example 1 was to evaluate the anti-proliferation effect of Furmonertinib mesilate on 18 cell lines (Ba/F3 EGFR-G719S, Ba/F3 EGFR-S768I, Ba/F3 EGFR-G724S, Ba/F3 EGFR-L718Q, Ba/F3 EGFR-Del19/G724S, Ba/F3 EGFR-E709H, Ba/F3 EGFR-L747S, Ba/F3 EGFR-E709V, Ba/F3 EGFR-L747V, Ba/F3 EGFR-E709-710>D, Ba/F3 EGFR-E709A, Ba/F3 EGFR-Del19/C797S, Ba/F3 EGFR-L858R/C797S, Ba/F3 EGFR-L747S/G719A, Ba/F3-EGFR-L858R-L718V, Ba/F3-EGFR-L858R-L718Q, Ba/F3-EGFR-E709K-G719A, and Ba/F3 EGFR-L861Q) using standard CellTiter-Glo® Luminescent Cell Viability Assay. Further, AZD9291 was used as control compound.
(§2) Cell culture: Ba/F3 EGFR-G719S, Ba/F3 EGFR-S768I, Ba/F3 EGFR-G724S, Ba/F3 EGFR-L718Q, Ba/F3 EGFR-Del19/G724S, Ba/F3 EGFR-E709H, Ba/F3 EGFR-L747S, Ba/F3 EGFR-E709V, Ba/F3 EGFR-L747V, Ba/F3 EGFR-E709-710>D, Ba/F3 EGFR-E709A, Ba/F3 EGFR-Del19/C797S, Ba/F3 EGFR-L858R/C797S, Ba/F3 EGFR-L747S/G719A, Ba/F3-EGFR-L858R-L718V, Ba/F3-EGFR-L858R-L718Q, Ba/F3-EGFR-E709K-G719A, and Ba/F3 EGFR-L861Q engineered cells were obtained from Kyinno, and maintained at 37° C. with 5% CO2, in the RPMI1640 media supplemented with 10% fetal bovine serum.
(§3) The cells during the logarithmic growth period were harvested and counted by using blood counting chamber. The cell viability was over 90% which was determined by trypan blue assay. The cell concentration was adjusted with culture medium. 90 μl cell suspensions was added to two 96-well plates to obtain the final cell density of 3000 cells per well. The plates were incubated in humidified incubator at 37° C. with 5% CO2.
(§4) The solution of tested compounds (Furmonertinib mesilate and AZD9291) was diluted 1000-fold with DMSO. Then, said DMSO solution was diluted 100-fold with PBS (Phosphate Buffered Saline) to obtain 10× working solution. And 10× reference control solution was prepared by Phosphate Buffered Saline (PBS). 10 μl working solution (10×) was dispensed to each well (triplicate for each concentration). (The top concentration was 3160 nM, 3.16-fold dilution and 10 different concentrations. The final concentration of DMSO in culture medium was 0.1% [v/v]). The plate was cultured for 3 days.
(§5) On Day 3, CellTiter-Glo® reagent (a luciferase ATP bioluminescence detection reagent) was thawed, and then the cell plate was equilibrated at room temperature for approximately 30 minutes. 100 μl CellTiter-Glo® Reagent which was equal to the volume of cell culture medium present in each well was added. The obtained content was mixed for 5 minutes on an orbital shaker to induce cell lysis. The cell plate was incubated at room temperature for 20 minutes to stabilize luminescent signal. The luminescence was recorded by using Multi-mode Microplate Reader.
(§6) [formula] • blank control: medium control; • vehicle control: culture medium with 0.1% DMSO
(§7) The graphical curves were fitted using a nonlinear regression model with a sigmoidal dose response.

Ba/F3 EGFR-Del19/G724S = assay: as above; type: cell-based; conditions: Mus musculus, BaF3, 72 h, 3 days
Source text: as §1, §2, §3, §4, §5, §6, §7

Ba/F3 EGFR-E709-710 > D = assay: as above; type: cell-based; conditions: Mus musculus, BaF3, 72 h, 3 days
Source text: as §1, §2, §3, §4, §5, §6, §7

Ba/F3 EGFR-E709A = assay: as above; type: cell-based; conditions: Mus musculus, BaF3, 72 h, 3 days
Source text: as §1, §2, §3, §4, §5, §6, §7

Ba/F3 EGFR-E709H = assay: as above; type: cell-based; conditions: Mus musculus, BaF3, 72 h, 3 days
Source text: as §1, §2, §3, §4, §5, §6, §7

Ba/F3 EGFR-E709V = assay: as above; type: cell-based; conditions: Mus musculus, BaF3, 72 h, 3 days
Source text: as §1, §2, §3, §4, §5, §6, §7

Ba/F3 EGFR-G719S = assay: as above; type: cell-based; conditions: Mus musculus, BaF3, 72 h, 3 days
Source text: as §1, §2, §3, §4, §5, §6, §7

Ba/F3 EGFR-G724S [1] = assay: as above; type: cell-based; conditions: Mus musculus, BaF3, 72 h, 3 days
Source text: as §1, §2, §3, §4, §5, §6, §7

Ba/F3 EGFR-L718Q = assay: as above; type: cell-based; conditions: Mus musculus, BaF3, 72 h, 3 days
Source text: as §1, §2, §3, §4, §5, §6, §7

Ba/F3 EGFR-L747S/G719A = assay: as above; type: cell-based; conditions: Mus musculus, BaF3, 72 h, 3 days
Source text: as §1, §2, §3, §4, §5, §6, §7

Ba/F3 EGFR-L747S = assay: as above; type: cell-based; conditions: Mus musculus, BaF3, 72 h, 3 days
Source text: as §1, §2, §3, §4, §5, §6, §7

Ba/F3 EGFR-L747V = assay: as above; type: cell-based; conditions: Mus musculus, BaF3, 72 h, 3 days
Source text: as §1, §2, §3, §4, §5, §6, §7

Ba/F3 EGFR-L858R/C797S = assay: as above; type: cell-based; conditions: Mus musculus, BaF3, 72 h, 3 days
Source text: as §1, §2, §3, §4, §5, §6, §7

Ba/F3 EGFR-L861Q = assay: as above; type: cell-based; conditions: Mus musculus, BaF3, 72 h, 3 days
Source text: as §1, §2, §3, §4, §5, §6, §7

Ba/F3 EGFR-S768I = assay: as above; type: cell-based; conditions: Mus musculus, BaF3, 72 h, 3 days
Source text: as §1, §2, §3, §4, §5, §6, §7

Ba/F3-EGFR-E709K-G719A = assay: as above; type: cell-based; conditions: 72 h, 3 days
Source text: as §1, §2, §3, §4, §5, §6, §7

Ba/F3-EGFR-L858R-L718Q = assay: as above; type: cell-based; conditions: 72 h, 3 days
Source text: as §1, §2, §3, §4, §5, §6, §7

Ba/F3-EGFR-L858R-L718V = assay: as above; type: cell-based; conditions: 72 h, 3 days
Source text: as §1, §2, §3, §4, §5, §6, §7

[2] = test system: 18 Ba/F3 EGFR mutant cell lines; assay: Anti-proliferation effect on 18 cell lines (overall result in words); type: cell-based; conditions: all 18 Ba/F3 EGFR mutant cell lines of Table 1
Source text: as §1, with “compound. […]” for “compound.”
The cells during the logarithmic growth period were harvested and counted by using blood counting chamber. The cell viability was over 90% which was determined by trypan blue assay. […]
On Day 3, CellTiter-Glo® reagent (a luciferase ATP bioluminescence detection reagent) was thawed, and then the cell plate was equilibrated at room temperature for approximately 30 minutes. […] The luminescence was recorded by using Multi-mode Microplate Reader. […]

Ba/F3 EGFR-G724S [3] = assay: Anti-tumor effect in Ba/F3 EGFR-G724S (KC-1385) cell xenograft model; type: in vivo, B-NDG mice; conditions: orally, once per day, two weeks
Source text: (§8) This study was used for evaluate the anti-tumor efficacy of furmonertinib mesilate in the female (B-NDG) immune deficiency mice bearing tumors of Ba/F3 EGFR-G724S engineered cells.
(§9) Experimental animals: B-NDG mice, female, 6-8 weeks, and weighing 18-20 g.
(§10) Animal modeling and random grouping: Ba/F3 EGFR-G724S cells were cultivated, cells were collected, and re-suspended and counted in serum-free medium, the re-suspended cells with the addition of a matrigel at 1:1 were subcutaneous inoculated at 1×10^6 cells/0.1 mL in B-NDG mice. When the average tumor volume was about 80-120 mm^3, the animals were randomly grouped into four experiment groups according to the tumor size. Each group contained 12 mice. The grouping day was defined as Day 0, i.e., D0.
The experimental scheme: B-NDG mice were subcutaneously inoculated with Ba/F3 EGFR-G724S cells to establish a cell-line-derived xenograft model. The experiment was divided into 15 mg/kg group of furmonertinib mesilate, 30 mg/kg group of furmonertinib mesilate, 50 mg/kg group of furmonertinib mesilate and vehicle group, wherein each group contained 12 animals, orally administered with the administration volume of 10 uL/g, and the vehicle group was administered with the same amount of vehicle, the administration was carried out once per day and lasted for two weeks. During the whole experiment, the body weight and the tumor sizes of the mice were measured twice each week, and whether or not the presence of toxic reactions was observed.
Tumor Volume (TV) was calculated by: TV=0.5*a*b^2, where a was the long diameter of the tumor and b was the short diameter of the tumor.
The curves for the tumor volume change of four experimental groups were shown in FIG. 1, and the curves for the body weight change of four experimental groups were shown in FIG. 2.

[4] = Body weight and safety in the Ba/F3 EGFR-G724S xenograft model; type: in vivo, B-NDG mice; conditions: 15, 30 and 50 mg/kg, orally, once per day, two weeks
Source text: as §8, §9, §10
The experimental scheme: B-NDG mice were subcutaneously inoculated with Ba/F3 EGFR-G724S cells to establish a cell-line-derived xenograft model. […] During the whole experiment, the body weight and the tumor sizes of the mice were measured twice each week, and whether or not the presence of toxic reactions was observed. […]

[5] = orally, once per day, 20 mg-240 mg; cited from earlier work
[6] = test system: EGFR T790M positive advanced non-small cell lung cancer; conditions: oral, 80 mg daily dose; patients progressed after prior systematic anti-tumor therapy; cited from earlier work

What does the source list for `C=CC(=O)Nc1cc(Nc2nccc(-c3cn(C)c4ccccc34)n2)c(OCC(F)(F)F)nc1N(C)CCN(C)C` [Furmonertinib mesilate]?
IC50 (Ba/F3 EGFR-Del19/C797S): 1220 nM; IC50 (Ba/F3 EGFR-Del19/G724S): 3.84 nM; IC50 (Ba/F3 EGFR-E709-710 > D): 89.6 nM; IC50 (Ba/F3 EGFR-E709A): 17.9 nM; IC50 (Ba/F3 EGFR-E709H): 31.3 nM; IC50 (Ba/F3 EGFR-E709V): 14.3 nM; IC50 (Ba/F3 EGFR-G719S): 12.1 nM; IC50 (Ba/F3 EGFR-G724S [1]): 21.3 nM; IC50 (Ba/F3 EGFR-L718Q): 501 nM; IC50 (Ba/F3 EGFR-L747S/G719A): 16.5 nM; IC50 (Ba/F3 EGFR-L747S): 15 nM; IC50 (Ba/F3 EGFR-L747V): 31.6 nM; IC50 (Ba/F3 EGFR-L858R/C797S): 2210 nM; IC50 (Ba/F3 EGFR-L861Q): 3.8 nM; IC50 (Ba/F3 EGFR-S768I): 21.6 nM; IC50 (Ba/F3-EGFR-E709K-G719A): 39 nM; IC50 (Ba/F3-EGFR-L858R-L718Q): 289 nM; IC50 (Ba/F3-EGFR-L858R-L718V): 23.9 nM; anti-proliferation effect [2]: good anti-proliferation effect; anti-tumor activity (Ba/F3 EGFR-G724S [3]; 15 mg/kg): moderate anti-tumor activity; anti-tumor activity (Ba/F3 EGFR-G724S [3]; 30 mg/kg): extremely significant anti-tumor activity; anti-tumor activity (Ba/F3 EGFR-G724S [3]; 50 mg/kg): extremely significant anti-tumor activity; effect on the body weight of mice [4]: little effect on the body weight of mice; safety [4]: good safety; adverse events of subjects [5]: mild or moderate; dose-related toxic reaction [5]: does not occur; tolerance and safety [5]: the tolerance and the safety are good; anti-tumor effect [6]: relatively good anti-tumor effect; disease progression [6]: can alleviate or stabilize the disease progression
